Test results as given in US7579469B2, “Glucocorticoid mimetics, methods of making them, pharmaceutical compositions, and uses thereof” (Boehringer Ingelheim Pharmaceuticals, Inc., priority 2003, dated 2009).

Target: T1, human glucocorticoid receptor (GR) complex (Homo sapiens, UniProt P04150)
T1 construct: made in house; host or cells: insect expression system (baculovirus lysate)
T1 sequence (P04150 1-777): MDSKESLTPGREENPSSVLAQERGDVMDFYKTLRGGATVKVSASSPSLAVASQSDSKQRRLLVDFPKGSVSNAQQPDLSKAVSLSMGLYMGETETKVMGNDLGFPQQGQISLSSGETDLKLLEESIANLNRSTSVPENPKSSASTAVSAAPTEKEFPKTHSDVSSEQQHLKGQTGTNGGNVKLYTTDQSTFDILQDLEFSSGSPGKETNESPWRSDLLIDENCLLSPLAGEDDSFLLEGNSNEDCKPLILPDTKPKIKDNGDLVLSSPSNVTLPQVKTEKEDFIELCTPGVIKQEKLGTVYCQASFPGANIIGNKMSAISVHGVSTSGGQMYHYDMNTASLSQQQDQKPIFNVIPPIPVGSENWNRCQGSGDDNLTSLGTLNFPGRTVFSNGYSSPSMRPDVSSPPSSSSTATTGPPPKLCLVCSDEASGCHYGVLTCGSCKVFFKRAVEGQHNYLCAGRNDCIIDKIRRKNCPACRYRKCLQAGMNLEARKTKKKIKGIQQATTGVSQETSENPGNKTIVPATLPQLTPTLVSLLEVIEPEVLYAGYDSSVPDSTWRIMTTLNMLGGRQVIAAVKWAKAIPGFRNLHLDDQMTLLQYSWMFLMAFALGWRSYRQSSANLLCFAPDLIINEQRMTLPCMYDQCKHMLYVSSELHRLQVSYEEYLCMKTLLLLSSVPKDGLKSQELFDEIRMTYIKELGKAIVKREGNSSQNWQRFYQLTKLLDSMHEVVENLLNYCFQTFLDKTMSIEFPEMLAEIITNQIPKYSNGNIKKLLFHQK
Assay: Glucocorticoid receptor competitive binding assay (fluorescence polarization)
Settings: competition with TAMRA-labeled dexamethasone
Protocol: Compounds of the invention were evaluated for binding to the steroid receptor by a fluorescence polarization competitive binding assay.
A. Glucocorticoid Receptor Competitive Binding Assay
Step 1. Characterization of the Fluorescent Probe
The wavelengths for maximum excitation and emission of the fluorescent probe should first be measured. An example of such a probe is rhodamine (TAMRA)-labeled dexamethasone.
The affinity of the probe for the steroid receptor was then determined in a titration experiment. The fluorescence polarization value of the probe in assay buffer was measured on an SLM-8100 fluorometer using the excitation and emission maximum values described above. Aliquots of expression vector lysate were added and fluorescence polarization was measured after each addition until no further change in polarization value was observed. Non-linear least squares regression analysis was used to calculate the dissociation constant of the probe from the polarization values obtained for lysate binding to the probe.
Step 2. Screening for Inhibitors of Probe Binding
This assay uses fluorescence polarization (FP) to quantitate the ability of test compounds to compete with tetramethyl rhodamine (TAMRA)-labeled dexamethasone for binding to a human glucocorticoid receptor (GR) complex prepared from an insect expression system. The assay buffer was: 10 mM TES, 50 mM KCl, 20 mM Na2MoO4.2H20, 1.5 mM EDTA, 0.04% w/v CHAPS, 10% v/v glycerol, 1 mM dithiothreitol, pH 7.4. Test compounds were dissolved to 1 mM in neat DMSO and then further diluted to 10× assay concentration in assay buffer supplemented with 10% v/v DMSO. Test compounds were serially diluted at 10× assay concentrations in 10% DMSO-containing buffer in 96-well polypropylene plates. Binding reaction mixtures were prepared in 96-well black Dynex microtiter plates by sequential addition of the following assay components to each well: 15 μL of 10× test compound solution, 85 μL of GR-containing baculovirus lysate diluted 1:170 in assay buffer, and 50 μL of 15 nM TAMRA-labeled dexamethasone. Positive controls were reaction mixtures containing no test compound; negative controls (blanks) were reaction mixtures containing 0.7 μM to 2 μM dexamethasone. […] IC50 values were determined by iterative non-linear curve fitting of the FP signal data to a 4-parameter logistic equation.

| activity in the GR binding assay | SMILES |
| --- | --- |
| potent activity | COc1cc(F)ccc1C(C)(C)CC(O)(Cn1ccc(=O)c2ccccc21)C(F)(F)F (centres unmarked) |
| potent activity | CC(C)(CC(O)(Cn1ccc(=O)c2cc(F)ccc21)C(F)(F)F)c1cc(F)ccc1O (centres unmarked) [6-Fluoro-1-[4-(5-fluoro-2-hydroxyphenyl)-2-hydroxy-4-methyl-2-trifluoromethylpentyl]-1H-quinolin-4-one] |
| potent activity | Cc1cn(CC(O)(CC(C)(C)c2cccc3c2OCC3)C(F)(F)F)c2ccccc2c1=O (centres unmarked) [1-[4-(2,3-Dihydrobenzofuran-7-yl)-2-hydroxy-4-methyl-2-trifluoromethylpentyl]-3-methyl-1H-quinolin-4-one] |
| potent activity | CC(C)(CC(O)(Cn1ccc(=O)c2ncccc21)C(F)(F)F)c1cc(F)ccc1O (centres unmarked) [1-[4-(5-Fluoro-2-hydroxyphenyl)-2-hydroxy-4-methyl-2-trifluoromethylpentyl]-1H-[1,5]naphthyridin-4-one] |
| potent activity | COc1ccc(F)cc1C(C)(C)CC(O)(Cn1cc(C(F)(F)F)cc(Cl)c1=O)C(F)(F)F (centres unmarked) [3-Chloro-1-[4-(5-fluoro-2-methoxyphenyl)-2-hydroxy-4-methyl-2-trifluoromethylpentyl]-5-trifluoromethyl-1H-pyridin-2-one] |
| potent activity | Cc1cc(F)ccc1C(C)(C)CC(O)(Cn1ccc(=O)c2ccccc21)C(F)(F)F (centres unmarked) |
| potent activity | CC(C)(CC(O)(Cn1cnc(=O)c2ccccc21)C(F)(F)F)c1cc(F)ccc1O (centres unmarked) |
| potent activity | CC(C)(CC(O)(Cn1[nH]c(=O)c2ccccc21)C(F)(F)F)c1cc(F)ccc1O (centres unmarked) [1-[4-(5-Fluoro-2-hydroxyphenyl)-2-hydroxy-4-methyl-2-trifluoromethylpentyl]-1,2-dihydroindazol-3-one] |
| potent activity | CCOc1ccc(F)cc1C(C)(C)CC(O)(Cn1ccc(=O)c2ccccc21)C(F)(F)F (centres unmarked) [1-[4-(2-Ethoxy-5-fluorophenyl)-2-hydroxy-4-methyl-2-trifluoromethylpentyl]-1H-quinolin-4-one] |
| potent activity | Cc1cc(C)cc(C(C)(C)CC(O)(Cn2ccc(=O)c3ccccc32)C(F)(F)F)c1 (centres unmarked) |
| potent activity | COc1ccc(F)cc1C(C)(C)CC(O)(CN1CCN(C(=O)c2ccco2)CC1)C(F)(F)F (centres unmarked) [{4-[4-(5-Fluoro-2-methoxyphenyl)-2-hydroxy-4-methyl-2-trifluoromethylpentyl]piperazin-1-yl}furan-2-ylmethanone] |
| potent activity | COC(=O)Oc1ccc(F)cc1C(C)(C)CC(O)(Cn1ccc(=O)c2ccccc21)C(F)(F)F (centres unmarked) |
| potent activity | CC(C)(CC(O)(Cn1ccc(=O)c2ccccc21)C(F)(F)F)c1cc(F)cc(F)c1 (centres unmarked) |
| potent activity | CC(C)(CC(O)(Cn1ccc(=O)c2ccc(Cl)cc21)C(F)(F)F)c1cc(F)ccc1O (centres unmarked) [7-Chloro-1-[4-(5-fluoro-2-hydroxyphenyl)-2-hydroxy-4-methyl-2-trifluoromethylpentyl]-1H-quinolin-4-one] |
| potent activity | Cc1ccc(C(C)(C)CC(O)(Cn2ccc(=O)c3ccccc32)C(F)(F)F)c(C)c1 (centres unmarked) |
| potent activity | COc1ccc(-c2ccsc2)cc1C(C)(C)CC(O)(Cn1ccc(=O)c2ccccc21)C(F)(F)F (centres unmarked) |

| activity in the GR binding assay | SMILES |
| --- | --- |
| potent activity | CC(C)(CC(O)(Cn1ccc(=O)c2ccccc21)C(F)(F)F)c1cc(-c2ccccc2)ccc1O (centres unmarked) [1-[2-Hydroxy-4-(4-hydroxybiphenyl-3-yl)-4-methyl-2-trifluoromethylpentyl]-1H-quinolin-4-one] |
| potent activity | CC(C)(CC(O)(Cn1ccc(=O)c2ccccc21)C(F)(F)F)c1cc(-c2ccsc2)ccc1O (centres unmarked) [1-[2-Hydroxy-4-(2-hydroxy-5-thiophen-3-ylphenyl)-4-methyl-2-trifluoromethylpentyl]-1H-quinolin-4-one] |
| potent activity | Cc1ccc(C(C)(C)CC(O)(Cn2ccc(=O)c3ccccc32)C(F)(F)F)cc1F (centres unmarked) [1-[4-(3-Fluoro-4-methylphenyl)-2-hydroxy-4-methyl-2-trifluoromethylpentyl]-1H-quinolin-4-one] |
| potent activity | COc1ccc(-c2ccoc2)cc1C(C)(C)CC(O)(Cn1ccc(=O)c2ccccc21)C(F)(F)F (centres unmarked) [1-[4-(5-Furan-3-yl-2-methoxyphenyl)-2-hydroxy-4-methyl-2-trifluoromethylpentyl]-1H-quinolin-4-one] |
| potent activity | COc1ccc(F)cc1C(C)(C)CC(O)(Cn1cc(C)c(=O)c(C)c1CO)C(F)(F)F (centres unmarked) [1-[4-(5-Fluoro-2-methoxyphenyl)-2-hydroxy-4-methyl-2-trifluoromethylpentyl]-2-hydroxymethyl-3,5-dimethyl-1H-pyridin-4-one] |
| potent activity | Cc1ccc(C)c(C(C)(C)CC(O)(Cn2ccc(=O)c3ccccc32)C(F)(F)F)c1 (centres unmarked) |
| potent activity | CC(C)(CC(O)(Cn1cc(CO)c(=O)c2ccccc21)C(F)(F)F)c1cc(F)ccc1O (centres unmarked) [1-[4-(5-Fluoro-2-hydroxyphenyl)-2-hydroxy-4-methyl-2-trifluoromethylpentyl]-3-hydroxymethyl-1H-quinolin-4-one] |
| potent activity | CC(C)(CC(O)(Cn1ccc(=O)c2ccccc21)C(F)(F)F)c1cccc2c1OCO2 (centres unmarked) |
| potent activity | CSc1cc2c(c(C(C)(C)CC(O)(Cn3ccc(=O)c4ccccc43)C(F)(F)F)c1)OCC2 (centres unmarked) [1-[2-Hydroxy-4-methyl-4-(5-methylsulfanyl-2,3-dihydrobenzofuran-7-yl)-2-trifluoromethylpentyl]-1H-quinolin-4-one] |
| potent activity | COc1ccc(-c2cncnc2)cc1C(C)(C)CC(O)(Cn1ccc(=O)c2ccccc21)C(F)(F)F (centres unmarked) |
| potent activity | CC(C)Oc1cccc(C(C)(C)CC(O)(Cn2ccc(=O)c3ccccc32)C(F)(F)F)c1 (centres unmarked) |
| potent activity | COc1ccc(F)cc1C(C)(C)CC(O)(CN1CC(C)N(C=O)C(C)C1)C(F)(F)F (centres unmarked) [4-[4-(5-Fluoro-2-methoxyphenyl)-2-hydroxy-4-methyl-2-trifluoromethylpentyl]-2,6-dimethylpiperazine-1-carbaldehyde] |
| potent activity | COc1ccc(F)cc1C(C)(C)CC(O)(Cn1ccc(=O)c2ccccc21)C(F)(F)F (centres unmarked) [1-[4-(5-Fluoro-2-methoxyphenyl)-2-hydroxy-4-methyl-2-trifluoromethylpentyl]-1H-quinolin-4-one] |
| potent activity | CC(C)(CC(O)(Cn1ccc(=O)c2cc(Cl)ccc21)C(F)(F)F)c1cc(F)ccc1O (centres unmarked) [6-Chloro-1-[4-(5-fluoro-2-hydroxyphenyl)-2-hydroxy-4-methyl-2-trifluoromethylpentyl]-1H-quinolin-4-one] |
| potent activity | Cc1ccc(O)c(C(C)(C)CC(O)(Cn2ccc(=O)c3ccccc32)C(F)(F)F)c1 (centres unmarked) [1-[2-Hydroxy-4-(2-hydroxy-5-methylphenyl)-4-methyl-2-trifluoromethylpentyl]-1H-quinolin-4-one] |
| potent activity | COc1ccc(CN2CCOCC2)cc1C(C)(C)CC(O)(Cn1ccc(=O)c2ccccc21)C(F)(F)F (centres unmarked) [1-[2-Hydroxy-4-(2-methoxy-5-morpholin-4-ylmethylphenyl)-4-methyl-2-trifluoromethylpentyl]-1H-quinolin-4-one] |
